For one assay, the system named is C57BL/6J mice. The assay is described as follows: High Fat and High Sucrose (HFHS) diet with FuFA-F2, quadriceps muscle mass. Type of assay: in vivo. The settings on record: 12 weeks. The procedure:
Forty six-weeks old male C57BL/6J mice (Charles River, L'Arbresle, France), weighing about 21 g, were housed (5 per cage) under conditions of constant temperature (20-22°C), humidity (45-50%) and a standard dark cycle (20.00-08.00 hours). The mice were randomized, according to their initial weight, into four groups of ten animals and fed for 12 weeks with one of the four following semi-purified diets: 1) control diet, 2) HFHS diet, 3) HFHS + FuFA-F2 (0.048%, 40mg/kg body weight/day), 4) HFHS + FuFA-F2 (0.127%, 105mg/kg body weight/day). In this example, "FuFA-F2" is the triacylglycerol form of FuFA-F2.
The control diet contains 5% lipids as a mixture of rapeseed oil, high oleic sunflower oil, sunflower oil and linseed oil (oil mixture of Carrefour), the high fat high sucrose (HFHS) diets contain 25% lipids (5% of a mixture of rapeseed oil, high oleic sunflower oil, sunflower oil and linseed oil and 20% of lard) and 30% sucrose. The detailed composition of the diets is given in Table 1 at the end of the present description. […]
Throughout the study, mice were given free access to food and tap water. Mice body weight was followed weekly and food consumption was determined every two days (during the week) or three days (the week-end). […]
Results were expressed as means ± SD. […]

The test system of a further assay is C2C12 myotubes. The assay is described as follows: Total protein content (protein accretion) in C2C12 myotubes. Type of assay: cell-based, Mouse. The settings on record: whatever the dose (1, 10, 50 µM), 3 days of supplementation, vs control. The procedure: (§1) Mouse myoblasts of the C2C12 cell line (ATCC) were seeded at a plating density of 7000 cells/cm2 in 6-well plates. They were grown in DMEM high glucose (4.5g/l) supplemented with gentamycin (50 µg/mL), amphotericin (50 µg/mL), and fetal calf serum (10%). Terminal differentiation was induced at cell confluence by lowering the medium serum concentration (0.5%).
(§2) When indicated, FuFA-F2 was added to the culture medium at the indicated concentration. For the differentiation studies, FuFA-F2 was added at the confluence at the same time as the change in media condition. Three doses of FuFA-F2 were studied at a final concentration of 1, 10, or 50 µM. Human insulin was used at a concentration of 100 nM.
Protein levels were assessed by Western blotting. Total proteins were measured using the Bio-Rad protein assay (Hercules, CA, USA) according to the manufacturer's instructions. Total proteins were lysed in RIPA buffer (20mM Tris, 150mM NaCl, 1mM EDTA, 1% NP40, pH 7.5 + complete cocktail protease inhibitors + Pierce phosphatase inhibitors tablet). 40 µg of cell extracts were loaded and blotted onto a nitrocellulose membrane. The membranes were washed, blocked with 5% nonfat milk and incubated in primary antibody overnight at 4°C. […]

Assay [1] deals with AMP activated protein kinase (AMPK). The assay is described as follows: AMPK phosphorylation by Western blot in C2C12 myotubes. Type of assay: cell-based, Mouse. The settings on record: whatever the dose. The procedure: as §1, §2
Protein levels were assessed by Western blotting. Total proteins were measured using the Bio-Rad protein assay (Hercules, CA, USA) according to the manufacturer's instructions. […]
AMP activated protein kinase (AMPK) is a crucial cellular energy sensor protein and is activated when intracellular ATP level decreases to regulate autophagy initiation (Hardie et al., 2012, Nat Rev Mol Cell Bio, Vol. 13 (4) : 251-262). […] The autophagy-related signaling was further evaluated by measuring the MTORC1 mediated phosphorylation […] at Ser757 which disrupts the interaction between ULK1 and AMPK. […] Therefore, the autophagic flux was assessed by measuring the conversion of LC3-I to LC3-II, through lipidation.
(In western blotting, separated proteins are transferred to a membrane and probed.)

Consider `CCCCCc1cc(C)c(CCCCCCCCC(=O)O)o1` [FuFA-F2], for which the quadriceps muscle mass result is “increased” in the assay with C57BL/6J mice (HFHS diet + FuFA-F2 (triacylglycerol form) at any dose (40 and 105mg/kg body weight/day), compared to HFHS alone); “significantly increased” in the assay on C57BL/6J mice (highest dose 105mg/kg body weight/day by comparison to lowest dose 40mg/kg body weight/day, HFHS diet, triacylglycerol form). Further, in the assay with C2C12 myotubes, the “total protein content in C2C12 myotubes” value was “significantly increase”. For the same compound, the “Activation level of AMPK, phosphorylation at Thr172” value in assay [1] is “significantly decreased”.

The record behind these values is patent EP4385508A1, “FURAN FATTY ACIDS FOR ENHANCING MUSCLE MASS” (Centre de Coopération Internationale en Recherche …, priority 2022, dated 2024).
